Data on 11 compounds can be found in PMC6616128, “Liquiritin, as a Natural Inhibitor of AKR1C1, Could Interfere With the Progesterone Metabolism” (Frontiers in Physiology, 2019).

The experiment addresses T1, AKR1C1 (Homo sapiens, UniProt Q04828).
T1 sequence (Q04828 1-323): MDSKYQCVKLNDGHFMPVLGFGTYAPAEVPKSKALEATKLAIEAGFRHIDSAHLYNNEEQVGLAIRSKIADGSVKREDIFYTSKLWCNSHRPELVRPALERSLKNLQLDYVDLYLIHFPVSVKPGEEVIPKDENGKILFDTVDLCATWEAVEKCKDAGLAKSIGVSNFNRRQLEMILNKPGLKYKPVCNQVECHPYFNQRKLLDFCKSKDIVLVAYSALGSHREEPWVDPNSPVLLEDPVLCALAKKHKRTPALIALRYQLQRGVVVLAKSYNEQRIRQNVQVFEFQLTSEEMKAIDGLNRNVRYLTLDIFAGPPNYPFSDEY
The experiment can be described thus: Enzyme activity (NADPH) assay with s-tetralol, recombinant GST-AKR1C1.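 As to all read-outs here: GST-fused AKR1C1 expressed in E. coli and purified by glutathione affinity, control wells received DMSO instead of compound, duplicate samples from a single experiment.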 Format: biochemical. Also on record: made in house; host or cells: Escherichia coli JM109. The settings on record: for enzyme activity: CON 192.295568; for remaining activity at 2 µM: read-out: ratio (activity relative to CON).

Setting [1] is: 2 μM compound, Supplementary Table 1.
Setting [2] is: 2 μM compound, Supplementary Table 1, CON 0.0122.
Where [3] appears, read: 2 μM compound, Supplementary Table 1, CON = 1.
Where [4] appears, read: 2 μM compound, Supplementary Table 1, read-out: % inhibition.

Like-named read-outs stand apart in the source and are kept apart here.

Regarding `CC(C)(C)[C@]1(O)CC2OC(=O)CC23C(=O)OC2OC(=O)[C@H](O)C231` (some centres unmarked) [Bilobalide], the inhibition at 2 µM came to 37.5%, the slope was 0.007623 and the remaining activity at 2 µM was determined as 62.5%. Further, the enzyme activity under setting [1] is listed as 120.151 nmol/min/mg.

`COc1cc2c(c(OC)c1OC)-c1c(cc3c(c1OC)OCO3)C[C@H](C)[C@@](C)(O)C2` [Schisandrol B]: the slope under setting [2] turned out to be 0.0137. Moreover, the enzyme activity under setting [1] is 215.6683 nmol/min/mg. In addition, the remaining activity at 2 µM under setting [3] worked out at 112%. The inhibition at 2 µM under setting [4] is -12.2%.

`C[C@@H]1O[C@@H](Oc2c(-c3ccc(O)c(O)c3)oc3cc(O)cc(O)c3c2=O)[C@H](O)[C@H](O)[C@H]1O` [Quercitrin]: under setting [2], the slope was 0.0114. Also, the enzyme activity under setting [1] was 180.0013 nmol/min/mg. The remaining activity at 2 µM under setting [3] is 93.6%. Further, the inhibition at 2 µM under setting [4] is 6.39%.

Take `COc1ccc(-c2coc3cc(O)ccc3c2=O)cc1O` [Calycosin]: the slope under setting [2] came to 0.0116. Further, under setting [1], the enzyme activity turned out to be 183.0185 nmol/min/mg. The remaining activity at 2 µM under setting [3] was found to be 95.2%. For the same compound, the inhibition at 2 µM under setting [4] was determined as 4.82%.

Turning to `O=c1c(-c2ccc(O)cc2)coc2cc(O[C@@H]3O[C@H](CO)[C@@H](O)[C@H](O)[C@H]3O)ccc12` [Daidzin], the slope under setting [2] is listed as 0.013. Further, under setting [1], the enzyme activity came out at 204.9952 nmol/min/mg. Also, the remaining activity at 2 µM under setting [3] is 107%. The inhibition at 2 µM under setting [4] is -6.6%.

`COc1ccc(-c2oc3cc(O)cc(O)c3c(=O)c2O)cc1` [Kaempferide]: the slope under setting [2] was 0.0115. Under setting [1], the enzyme activity amounted to 181.9828 nmol/min/mg. Under setting [3], the remaining activity at 2 µM came to 94.6%. The inhibition at 2 µM under setting [4] came out at 5.36%.

For the compound `O=c1c(O[C@@H]2O[C@H](CO)[C@@H](O)[C@H](O)[C@H]2O)c(-c2ccc(O)c(O)c2)oc2cc(O)cc(O)c12` [Isoquercitrin], the slope under setting [2] is on record as 0.007797. Moreover, the enzyme activity under setting [1] is reported as 122.898 nmol/min/mg. Moreover, the remaining activity at 2 µM under setting [3] was found to be 63.9%. The inhibition at 2 µM under setting [4] was found to be 36.1%.

In the case of `C[C@]12C[C@@H](O)[C@@H]3C[C@@]1(O[C@@H]1O[C@H](CO)[C@@H](O)[C@H](O)[C@H]1O)[C@@]3(COC(=O)c1ccccc1)C(=O)O2` [Albiflorin], under setting [1], the “% inhibition” value was -5.5% and the enzyme activity is 202.8786 nmol/min/mg. For the same compound, the slope under setting [2] is 0.0129. In addition, the “ratio (activity relative to CON)” value under setting [3] turned out to be 1.055.

As to Echinacoside, under setting [1], the “% inhibition” value is -7.12% and the enzyme activity stood at 205.9859 nmol/min/mg. In addition, the slope under setting [2] came out at 0.0131. Further, under setting [3], the “ratio (activity relative to CON)” value was 1.0712.

As for `COc1cc2c(c(OC)c1OC)-c1c(cc(OC)c(OC)c1OC)C[C@H](C)[C@H](C)C2` [Schisandrin A], under setting [2], the slope is reported as 0.0133. Moreover, the enzyme activity under setting [1] came out at 209.2284 nmol/min/mg. Also, the remaining activity at 2 µM under setting [3] turned out to be 109%. For the same compound, the inhibition at 2 µM under setting [4] is -8.81%.

As to `C[C@@H]1C(=O)O[C@H]2C[C@@]34[C@H]5C[C@@H](C(C)(C)C)[C@]36[C@@H](OC(=O)[C@@H]6O)O[C@@]4(C(=O)O5)[C@]21O` [Ginkgolide A], under setting [2], the slope was 0.008406. Also, the enzyme activity under setting [1] is 132.4903 nmol/min/mg. In addition, the remaining activity at 2 µM under setting [3] was 68.9%. Also, under setting [4], the inhibition at 2 µM turned out to be 31.1%.

As a reminder, the inhibition is the drop in the measured response relative to a control, in per cent. By % inhibition is commonly meant the change of the read-out against control, counted positive when it falls.
